Experimental data published in US7935682B2, “Wound healing dressing for enhancing fibrocyte formation” (William Marsh Rice University, priority 2002, dated 2011).

B1: CRP: purified human C-reactive protein (Calbiochem) (protein, UniProt P02741 19-224, looked up)
C-reactive protein: QTDMSRKAFVFPKESDTSYVSLKAPLTKPLKAFTVCLHFYTELSSTRGYSIFSYATKRQDNEILIFWSKDIGYSFTVGGSEILFEVPEVTVAPVHICTSWESASGIVEFWVDGKPRVRKSLKKGYTVGAEASIILGQEQDSFGGNFEGSQSLVGDIGNVNMWDFVLSPDEINTIYLGGPFSPNVLNWRALKYEVQGEVFTKPQLWP
B2: Protein S: purified human protein S, vitamin K-dependent anticoagulant (Calbiochem) (protein, UniProt P07225 42-676, looked up)
Vitamin K-dependent protein S: ANSLLEETKQGNLERECIEELCNKEEAREVFENDPETDYFYPKYLVCLRSFQTGLFTAARQSTNAYPDLRSCVNAIPDQCSPLPCNEDGYMSCKDGKASFTCTCKPGWQGEKCEFDINECKDPSNINGGCSQICDNTPGSYHCSCKNGFVMLSNKKDCKDVDECSLKPSICGTAVCKNIPGDFECECPEGYRYNLKSKSCEDIDECSENMCAQLCVNYPGGYTCYCDGKKGFKLAQDQKSCEVVSVCLPLNLDTKYELLYLAEQFAGVVLYLKFRLPEISRFSAEFDFRTYDSEGVILYAESIDHSAWLLIALRGGKIEVQLKNEHTSKITTGGDVINNGLWNMVSVEELEHSISIKIAKEAVMDINKPGPLFKPENGLLETKVYFAGFPRKVESELIKPINPRLDGCIRSWNLMKQGASGIKEIIQEKQNKHCLVTVEKGSYYPGSGIAQFHIDYNNVSSAEGWHVNVTLNIRPSTGTGVMLALVSGNNTVPFAVSLVDSTSEKSQDILLSVENTVIYRIQALSLCSDQQSHLEFRVNRNNLELSTPLKIETISHEDLQRQLAVLDKAMKAKVATYLGGLPDVPFSATPVNAFYNGCMEVNINGVQLDLDEAISKHNDIRAHSCPSVWKKTKNS
B3: IL-4: cytokine, activator of the fibrotic response (protein, UniProt P05112 25-153, looked up)
Interleukin-4: HKCDITLQEIIKTLNSLTEQKTLCTELTVTDIFAASKNTTEKETFCRAATVLRQFYSHHEKDTRCLGATAQQFHRHKQLIRFLKRLDRNLWGLAGLNSCPVKEANQSTLENFLERLKTIMREKYSKCSS

System: monocyte to fibrocyte differentiation (PBMC)
Assay: Fibrocyte differentiation assay: PBMC cultured in serum-free medium, fibrocytes enumerated by morphology
Type: cell-based, human
Settings: for number of fibrocytes in culture: concentrations between 10 and 0.1 ng/ml; for number of fibrocytes in culture / ability to inhibit fibrocyte differentiation: PBMC in serum-free medium; for ability to inhibit fibrocyte differentiation: commercially available purified proteins, 6 days
Method: The rapid appearance of these cells, within 3 days of culture, was inhibited by human serum or plasma. To examine this process in more detail, PBMC were cultured at 5×10^5 cells per ml in serum-free medium containing increasing concentrations of human plasma for 6 days. […] The activity in the serum that inhibited fibrocyte formation was retained by a 30 kDa cutoff spin-filter (data not shown).
Plasma was fractionated by BaCl2 precipitation, heparin and ion exchange chromatography. Protein concentrations were assessed by spectrophotometry at 280 nm. Inhibition of fibrocyte differentiation was assessed by morphology. The fibrocyte inhibitory activity of a sample was defined as the reciprocal of the dilution at which it inhibited fibrocyte differentiation by 50%, when added to serum-free medium.
Serum amyloid P is a constitutive plasma protein and is closely related to CRP, the major acute phase protein in humans. […] Serum and plasma contain between 30-50 μg/ml SAP.
Cells were incubated in serum-free medium: RPMI (GibcoBRL Life, Invitrogen, Carlsbad, Calif., USA) supplemented with 10 mM HEPES (GibcoBRL/Life), 2 mM glutamine, 100 U/ml penicillin and 100 μg/ml streptomycin, 0.2% bovine serum albumin (BSA, Sigma), 5 μg/ml insulin (Sigma), 5 μg/ml iron-saturated transferrin (Sigma) and 5 ng/ml sodium selenite (Sigma). Normal human serum (Sigma), normal human plasma (Gulf Coast Regional Blood Center) or fetal calf serum (Sigma), column fractions, sera and synovial fluid from patients or purified proteins were added at the stated concentrations. Patient samples were obtained from a repository available to researchers at University of Texas Medical School at Houston. This repository keeps patient information confidential, and meets all NIH guidelines.
PBMC were cultured in 24 or 96 well tissue culture plates in 2 ml or 200 μl volumes respectively (Becton Dickinson, Franklin Lakes, N.J.) at 2.5×10^5 cells per ml in a humidified incubator containing 5% CO2 at 37° C. for the indicated times. Fibrocytes in 5 different 900 μm diameter fields of view were enumerated by morphology in viable cultures as adherent cells with an elongated spindle-shaped morphology as distinct from small lymphocytes or adherent monocytes. Alternatively cells were air dried, fixed in methanol and stained with haematoxylin and eosin (Hema 3 Stain, VWR, Houston, Tex.). Fibrocytes were counted using the above criterion and the presence of an oval nucleus. Enumeration of fibrocytes was performed on cells cultured for 6 days in flat-bottomed 96 well plates, with 2.5×10^4 cells per well. In addition, fibrocyte identity was confirmed by immunoperoxidase staining (see below). The fibrocyte inhibitory activity of a sample was defined as the reciprocal of the dilution at which it inhibited fibrocyte differentiation by 50%, when added to serum-free medium.
Experiments have shown that IL-4 and IL-13 are capable of promoting fibrocyte differentiation in vitro. Specifically, PBMC were cultured in serum-free medium in the presence of IL-4 or IL-13. […] Therefore a bandage or other topical agarose formulation as described above additionally containing IL-4 and/or IL-13 is expected to show further improvements in wound healing.

Molecule	number of fibrocytes in culture	ability to inhibit fibrocyte differentiation	other results
IL-13: cytokine, activator of the fibrotic response	enhanced the number of fibrocytes	–	–
SAP: commercially available purified human serum amyloid P (Calbiochem), a pentraxin plasma protein	–	able to inhibit fibrocyte differentiation	activity from dilution curve (commercially available SAP): approximately 6.6×10^3 units/mg; concentration of maximal inhibitory activity (commercially available purified SAP): 1 µg/mL; SAP concentration at the plasma dilution at which fibrocytes began to appear, comparable to the threshold concentration of purified SAP (worked out from 0.5% plasma and 30-50 μg/ml SAP): 0.15 to 0.25 µg/mL
B1	–	only SAP was able to inhibit fibrocyte differentiation	–
B2	–	only SAP was able to inhibit fibrocyte differentiation	–
B3	enhanced the number of fibrocytes	–	–
